Results taken from patent publication US8470828B2, “Anellated pyridine compounds” (Hoffmann-La Roche Inc., priority 2010, dated 2013).

Legend:
[1] = molecular target: T1, human D2 receptor (Homo sapiens, UniProt P14416); assay: Radioligand binding to cloned human D2 receptor expressed in HEK-293 EBNA cells ([3H]-spiperone); settings: HEK293 EBNA cell membranes, approximately 0.7 nM [3H]-spiperone, 1 h at RT
T1 construct: expressed in transfected cells; host or cells: HEK293 EBNA cells, transient transfection; membrane preparation

[2] = molecular target: human D3 receptor (Homo sapiens, UniProt P35462); assay: Radioligand binding to cloned human D3 receptor expressed in HEK-293 EBNA cells ([3H]-spiperone)
Procedure: (§1) HEK293 EBNA cells were transiently transfected with expression plasmids encoding for the human D2 or D3 or for the human 5-HT2A receptor, respectively. The cells were harvested 48 h post-transfection, washed three times with cold PBS and stored at −80° C. prior to use. The pellet was suspended in cold 50 mM Tris-HCl buffer comprising 10 mM EDTA (pH 7.4) and was homogenized with a Polytron (Kinematica A G, Basel, Switzerland) for 20-30 sec at 12.000 rpm. After centrifugation at 48.000×g for 30 min at 4° C., the pellet was resuspended in cold 10 mM Tris-HCl buffer comprising 0.1 mM EDTA (pH 7.4), homogenized, and centrifuged as above. This pellet was further resuspended in a smaller volume of ice cold 10 mM Tris-HCl buffer comprising 0.1 mM EDTA (pH 7.4) and homogenized with a Polytron for 20-30 sec at 12.000 rpm. The protein content of this homogenate was determined with the Bio-Rad (Bradford) Protein Assay (Biorad Laboratories GmbH, München, Germany) according to the instructions of the manufacturer using gamma globulin as the standard. This homogenate was stored at −80° C. in aliquots and thawed immediately prior to use.
(§2) Aliquots of membrane preparations were thawed at RT, resupended in assay buffer (D2, D3: 50 mM Tris-HCl, 120 mM NaCl, 5 mM MgCl2, 1 mM EDTA, 5 mM KCl, 1.5 mM CaCl2, pH=7.4; 5-HT2A: 50 mM Tris-HCl, 10 mM MgCl2, 1 mM EGTA, pH=7.4), homogenized with a Polytron for 20-30 sec at 12.000 rpm and adjusted to a final concentration of approximately 7.5 μg protein/well (D2, D3) and 15 μg protein/well (5-HT2A), respectively.
(§3) The binding affinity (Ki) of the compounds was determined using radioligand binding. Membranes were incubated in a total volume of 200 μl with a fixed concentration of radioligand (final concentration approximately 0.7 nM [^3H]-spiperone for D2, 0.5 nM [^3H]-spiperone for D3, and 1.1 nM [^3H]-ketanserin for 5-HT2A) and ten concentrations of test compound in ranging between 10 μM-0.1 nM for 1 h at RT. At the end of the incubation, the reaction mixtures were filtered on to unifilter 96-well white microplates with bonded GF/C filters (Packard BioScience, Zürich, Switzerland; preincubated for 1 h in 0.1% polyethylenimine (PEI) in assay buffer) with a Filtermate 196 harvester (Packard BioScience) and washed 3 times with cold assay buffer. The nonspecific binding was determined with equally composed reaction mixtures in the presence of 10 μM unlabelled spiperone. Per well 45 μl of Microscint 40 (Perkin Elmer, Schwerzenbach, Switzerland) was added, plates for sealed, shaken for 20 min and counted for 3 min on a Topcount Microplate Scintillation Counter (Can berra Packard S A, Zürich, Switzerland) with quenching correction.
(§4) The CPM value for each duplicate of a concentration of competing compound was averaged (y1), then the % specific binding was calculated according to the equation (((y1−non-specific)/(total binding−non-specific))×100). Graphs were plotted with the % specific binding using XLfit, a curve fitting program that iteratively plots the data using Levenberg-Marquardt algorithm. The single site competition analysis equation used was y=A+((B−A)/(1+((x/C)D))), where y is the % specific binding, A is the minimum y, B is the maximum y, C is the IC50, x is the log 10 of the concentration of the competing compound and D is the slope of the curve (the Hill Coefficient). […] The affinity constant (Ki) was calculated using the Cheng-Prusoff equation Ki=(IC50/1+([L]/Kd), where [L] is the concentration of radioligand and Kd is the dissociation constant of the radioligand at the receptor as determined by the saturation isotherm.

[3] = molecular target: human 5-HT2A receptor (Homo sapiens, UniProt P28223); assay: Radioligand binding to cloned human 5-HT2A receptor expressed in HEK-293 EBNA cells ([3H]-ketanserin)
human 5-HT2A receptor, sequence (P28223 whole entry): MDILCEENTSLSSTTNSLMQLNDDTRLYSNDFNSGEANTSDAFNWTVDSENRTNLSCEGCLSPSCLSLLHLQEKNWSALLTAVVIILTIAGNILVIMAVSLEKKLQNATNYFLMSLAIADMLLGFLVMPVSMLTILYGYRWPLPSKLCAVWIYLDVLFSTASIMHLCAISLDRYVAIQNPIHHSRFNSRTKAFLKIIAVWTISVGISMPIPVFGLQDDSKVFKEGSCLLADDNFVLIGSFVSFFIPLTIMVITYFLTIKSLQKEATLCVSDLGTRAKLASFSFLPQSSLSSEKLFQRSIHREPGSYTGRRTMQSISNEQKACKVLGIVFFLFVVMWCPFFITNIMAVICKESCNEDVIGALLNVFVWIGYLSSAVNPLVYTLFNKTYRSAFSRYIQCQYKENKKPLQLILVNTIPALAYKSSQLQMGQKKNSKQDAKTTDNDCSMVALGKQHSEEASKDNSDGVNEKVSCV
Procedure: as §1, §2, §3, §4

human D3 receptor, sequence (P35462 whole entry): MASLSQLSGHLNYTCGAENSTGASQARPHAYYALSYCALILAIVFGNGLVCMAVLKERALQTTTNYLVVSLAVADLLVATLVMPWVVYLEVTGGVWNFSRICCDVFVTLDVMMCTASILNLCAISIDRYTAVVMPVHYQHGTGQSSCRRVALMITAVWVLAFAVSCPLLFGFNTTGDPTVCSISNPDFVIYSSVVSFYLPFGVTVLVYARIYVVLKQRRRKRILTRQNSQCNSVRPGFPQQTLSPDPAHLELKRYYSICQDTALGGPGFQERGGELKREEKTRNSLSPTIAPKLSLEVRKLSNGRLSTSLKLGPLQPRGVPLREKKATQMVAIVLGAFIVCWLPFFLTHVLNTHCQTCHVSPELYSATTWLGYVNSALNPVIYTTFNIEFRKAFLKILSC
T1 sequence (P14416 whole entry): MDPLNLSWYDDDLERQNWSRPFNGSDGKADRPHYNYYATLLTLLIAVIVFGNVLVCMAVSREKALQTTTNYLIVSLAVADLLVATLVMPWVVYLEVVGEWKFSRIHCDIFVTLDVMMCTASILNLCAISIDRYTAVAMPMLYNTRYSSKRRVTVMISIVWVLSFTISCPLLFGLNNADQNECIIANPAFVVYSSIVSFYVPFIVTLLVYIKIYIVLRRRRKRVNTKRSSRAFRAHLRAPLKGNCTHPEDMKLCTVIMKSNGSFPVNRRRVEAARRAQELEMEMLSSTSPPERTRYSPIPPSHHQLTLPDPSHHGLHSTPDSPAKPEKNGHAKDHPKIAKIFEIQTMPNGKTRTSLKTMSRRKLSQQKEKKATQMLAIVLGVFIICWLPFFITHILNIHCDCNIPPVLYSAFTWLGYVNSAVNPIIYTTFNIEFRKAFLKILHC

| Ki [1] [nM] | melting point [°C] | Ki [2] [nM] | Ki [3] [nM] | SMILES |
| --- | --- | --- | --- | --- |
| 1750 | 188.5 | 12.2 | 53.3 | CO[C@H]1CC[C@H](CC(=O)N[C@H]2CC[C@H](CCN3CCN(c4nccc5c4OCC5)CC3)CC2)CC1 [Example 92, trans-N-(4-{2-[4-(2,3-Dihydro-furo[2,3-c]pyridin-7-yl)-piperazin-1-yl]-ethyl}-cyclohexyl)-trans-2-(4-methoxy-cyclohexyl)-acetamide] |
| 832 | 219 | 38.4 | 30.7 | C[C@]1(O)CC[C@@H](C(=O)N[C@H]2CC[C@H](CCN3CCN(c4nccc5c4OCC5)CC3)CC2)CC1 [Example 93, cis-4-Hydroxy-4-methyl-cyclohexanecarboxylic acid trans-(4-{2-[4-(2,3-dihydro-furo[2,3-c]pyridin-7-yl)-piperazin-1-yl]-ethyl}-cyclohexyl)-amide] |
| 641 | 128 | 10.8 | 31.1 | CN(C)S(=O)(=O)N[C@H]1CC[C@H](CCN2CCN(c3nccc4c3OCC4)CC2)CC1 [Example 95, N′-(trans-4-{2-[4-(2,3-Dihydro-furo[2,3-c]pyridin-7-yl)-piperazin-1-yl]-ethyl}cyclohexyl)-N,N-dimethylsulfamide] |
| 420 | 175 | 4.88 | 31.6 | O=C(CC1COC1)N[C@H]1CC[C@H](CCN2CCN(c3nccc4c3OCC4)CC2)CC1 [Example 98, trans-N-(4-{2-[4-(2,3-Dihydro-furo[2,3-c]pyridin-7-yl)-piperazin-1-yl]-ethyl}-cyclohexyl)-2-oxetan-3-yl-acetamide] |
| 714 | 170.5 | 30.9 | 22.9 | CO[C@H](C)C(=O)N[C@H]1CC[C@H](CCN2CCN(c3nccc4c3OCC4)CC2)CC1 [Example 100, trans-(R)—N-(4-{2-[4-(2,3-Dihydro-furo[2,3-c]pyridin-7-yl)-piperazin-1-yl]-ethyl}-cyclohexyl)-2-methoxy-propionamide] |
| 478 | 155 | 11.8 | 50.6 | O=C(CC1(O)CCC1)N[C@H]1CC[C@H](CCN2CCN(c3nccc4c3OCC4)CC2)CC1 [Example 102, trans-N-(4-{2-[4-(2,3-Dihydro-furo[2,3-c]pyridin-7-yl)-piperazin-1-yl]-ethyl}-cyclohexyl)-2-(1-hydroxy-cyclobutyl)-acetamide] |

| SMILES | Ki [1] [nM] | melting point [°C] | Ki [2] [nM] | Ki [3] [nM] |
| --- | --- | --- | --- | --- |
| CN(C)C(=O)N[C@H]1CC[C@H](CCN2CCN(c3nccc4c3OCC4)CC2)CC1 [Example 94, trans-3-(4-{2-[4-(2,3-Dihydro-furo[2,3-c]pyridin-7-yl)-piperazin-1-yl]-ethyl}-cyclohexyl)-1,1-dimethyl-urea] | 429 | 217.5 | 82 | 135 |
| O=S(=O)(N[C@H]1CC[C@H](CCN2CCN(c3nccc4c3OCC4)CC2)CC1)c1ccc(F)cc1 [Example 96, trans-N-(4-{2-[4-(2,3-Dihydro-furo[2,3-c]pyridin-7-yl)-piperazin-1-yl]-ethyl}-cyclohexyl)-4-fluoro-benzenesulfonamide] | 200 | 148 | 5.27 | 204 |
| O=S(=O)(N[C@H]1CC[C@H](CCN2CCN(c3nccc4c3OCC4)CC2)CC1)c1ccccc1 [Example 99, trans-N-(4-{2-[4-(2,3-Dihydro-furo[2,3-c]pyridin-7-yl)-piperazin-1-yl]-ethyl}-cyclohexyl)-benzenesulfonamide] | 233 | 122.5 | 6 | 151 |
| CC[C@@H](O)CC(=O)N[C@H]1CC[C@H](CCN2CCN(c3nccc4c3OCC4)CC2)CC1 [Example 103, (R)-3-Hydroxy-pentanoic acid trans-(4-{2-[4-(2,3-dihydro-furo[2,3-c]pyridin-7-yl)-piperazin-1-yl]-ethyl}-cyclohexyl)-amide] | 874 | 146 | 20.1 | 113 |
